Reference: BindingDB's records for doi:10.7270/Q2ZC817P (The Scripps Research Institute Molecular Screening Center, 2007)
Counter-ions that a name gives are not always drawn.

biological target: Sphingosine 1-phosphate receptor 1 (Homo sapiens, UniProt P21453); assay: S1P1 agonism potentiation – cell-based, potentiator mode, 60K MLSMR set, dose response (AID 466); conditions: not given
Sequence (P21453 whole entry): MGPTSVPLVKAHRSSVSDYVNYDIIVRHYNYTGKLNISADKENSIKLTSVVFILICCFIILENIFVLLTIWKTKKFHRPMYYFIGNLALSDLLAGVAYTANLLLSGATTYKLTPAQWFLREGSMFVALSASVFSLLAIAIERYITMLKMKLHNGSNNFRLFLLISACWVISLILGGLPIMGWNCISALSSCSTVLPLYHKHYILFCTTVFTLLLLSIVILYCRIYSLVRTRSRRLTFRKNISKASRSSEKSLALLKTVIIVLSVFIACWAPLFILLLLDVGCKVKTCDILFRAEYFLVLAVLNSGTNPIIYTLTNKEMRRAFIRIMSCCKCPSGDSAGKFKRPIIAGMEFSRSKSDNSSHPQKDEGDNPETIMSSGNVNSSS

Q: `COc1ccccc1OCc1nc(C#N)c(N2CC(C)CC(C)C2)o1` (centres undefined) [5-(3,5-dimethyl-1-piperidinyl)-2-[(2-methoxyphenoxy)methyl]-4-oxazolecarbonitrile] was tested. Which EC50 did it give?
A: 2.55 µM

Q: How did the EC50 turn out when `COc1ccc(-c2nc(-c3cccc(C)c3)no2)cc1OC` [5-(3,4-dimethoxyphenyl)-3-(3-methylphenyl)-1,2,4-oxadiazole] was run?
A: 1.07 µM

Q: Which EC50 does the source give for `N#Cc1nc(COc2ccc(Cl)cc2Cl)oc1N1CCN(c2ccccc2)CC1` [2-[(2,4-dichlorophenoxy)methyl]-5-(4-phenyl-1-piperazinyl)-4-oxazolecarbonitrile] here?
A: > 10 µM

Q: `CCC(NC(C)c1ccccc1)=C1C(=O)N(C)C(=O)N(C)C1=O` (centres undefined) [SMR000043429] was tested. Which EC50 did it give?
A: 14.4 µM

Q: Which EC50 does the source give for `Cc1csc(NC(=O)C(Cc2ccccc2)n2cccc2)n1` (centres undefined) [MLS000119019] here?
A: 2.28 µM

Q: Which EC50 does the source give for `COCCn1c(C)cc(C(=O)CSc2nnc(-c3cccnc3)n2-c2ccccc2F)c1C` [2-[[4-(2-fluorophenyl)-5-(3-pyridinyl)-1,2,4-triazol-3-yl]thio]-1-[1-(2-methoxyethyl)-2,5-dimethyl-3-pyrrolyl]ethanone] here?
A: 1.22 µM

Q: `COc1ccc(-c2noc(-c3cccc(OC)c3OC)n2)cc1OC` [5-(2,3-dimethoxyphenyl)-3-(3,4-dimethoxyphenyl)-1,2,4-oxadiazole] was tested. Which EC50 did it give?
A: 1.02 µM

Q: How did the EC50 turn out when `O=C(NCc1ccccc1)N1CCN(c2ccc(Cl)c(Cl)c2)CC1` [4-(3,4-dichlorophenyl)-N-(phenylmethyl)-1-piperazinecarboxamide] was run?
A: 6.67 µM

Q: With `COc1ccc(C(=O)C(CN2CCOCC2)c2ccccc2)cc1F` (centres undefined) [1-(3-Fluoro-4-methoxy-phenyl)-3-morpholin-4-yl-2-phenyl-propan-1-one] as the molecule, how does the EC50 read?
A: 31.1 µM

Q: For `CCC(NCc1ccc2c(c1)OCO2)=C1C(=O)NC(=O)N(C2CCCCC2)C1=O` [(5E)-5-[1-(1,3-benzodioxol-5-ylmethylamino)propylidene]-1-cyclohexyl-1,3-diazinane-2,4,6-trione], which EC50 is on record?
A: 8.66 µM

Q: How did the EC50 turn out when `CCN=c1scc(-c2ccc3c(c2)NC(=O)CO3)n1N=C1CCCC1` [MLS000054638] was run?
A: 7.16 µM

Q: How did the EC50 turn out when `O=C(Nc1ccc(N2CCCCC2)c(Cl)c1)c1nnc[nH]1` was run?
A: 0.879 µM

Q: For `CCC1CCCCN1C(=O)CSc1nnc(-c2c[nH]c3ccccc23)o1` (centres undefined), which EC50 is on record?
A: 4.61 µM

Q: With `Oc1ccc(-c2nnc(-c3ccc(O)cc3)nn2)cc1` [4,4'-(1,2,4,5-tetrazine-3,6-diyl)diphenol] as the molecule, how does the EC50 read?
A: > 10 µM

Q: Which EC50 does the source give for `COC(=O)Cc1sc(=O)[nH]c1Nc1ccccc1` [MLS000111966] here?
A: > 95 µM

Q: For `Cc1cccc(N2CCN(C(=O)CSCc3c(C)noc3C)CC2)c1C` [2-[(3,5-dimethyl-1,2-oxazol-4-yl)methylsulfanyl]-1-[4-(2,3-dimethylphenyl)piperazin-1-yl]ethanone], which EC50 is on record?
A: 4.41 µM

Q: How did the EC50 turn out when `Cc1cc(N2CCN(C/C=C/c3ccccc3)CC2)n2ncnc2n1` [5-Methyl-7-[4-((E)-3-phenyl-allyl)-piperazin-1-yl]-[1,2,4]triazolo[1,5-a]pyrimidine] was run?
A: > 30 µM

Q: `CCOc1ccc(-c2noc(-c3ccncc3)n2)cc1OCC` [3-(3,4-diethoxyphenyl)-5-(4-pyridyl)-1,2,4-oxadiazole] was tested. Which EC50 did it give?
A: 0.428 µM

Q: How did the EC50 turn out when `CCCc1cc(C(=O)N2CCN(C(c3ccccc3)c3ccccc3)CC2)no1` [(4-benzhydrylpiperazin-1-yl)-(5-propyl-1,2-oxazol-3-yl)methanone] was run?
A: 5.97 µM

Q: How did the EC50 turn out when `CC(C)(C)C1CCC2(CC1)C(C#N)=C(SCC(=O)Nc1ccccc1)NC(=O)C2C#N` (centres undefined) [2-[(9-tert-butyl-1,5-dicyano-2-oxidanylidene-3-azaspiro[5.5]undec-4-en-4-yl)sulfanyl]-N-phenyl-ethanamide] was run?
A: 4.71 µM

Q: `Cc1oc2cc(O)cc(O)c2c(=O)c1-c1ccc2c(c1)OCCCO2` [3-(3,4-dihydro-2H-1,5-benzodioxepin-7-yl)-2-methyl-5,7-bis(oxidanyl)chromen-4-one] was tested. Which EC50 did it give?
A: 3.73 µM

Q: `CC1Cc2ccccc2N1c1ncnc2nc[nH]c12` (centres undefined) [SMR000017649] was tested. Which EC50 did it give?
A: 7.03 µM

Q: For `CC1CCc2nc(NC(=O)CSc3nc4ccccc4o3)sc2C1` (centres undefined) [2-(1,3-benzoxazol-2-ylsulfanyl)-N-(6-methyl-4,5,6,7-tetrahydro-1,3-benzothiazol-2-yl)acetamide], which EC50 is on record?
A: > 30 µM

Q: With `CCN(C(=O)c1ccc(C(C)(C)C)cc1)c1nnc(Cn2nnc3ccccc32)s1` [MLS000072751] as the molecule, how does the EC50 read?
A: 1.82 µM

Q: With `CCC(NCCOc1ccc(Cl)cc1)=C1C(=O)N(C)C(=O)N(C)C1=O` [5-[1-[2-(4-chlorophenoxy)ethylamino]propylidene]-1,3-dimethyl-1,3-diazinane-2,4,6-trione] as the molecule, how does the EC50 read?
A: 5.34 µM

Q: Which EC50 does the source give for `CCc1nnc(NC(=O)C2CCCCC2)s1` [MLS000104554] here?
A: > 95 µM

Q: How did the EC50 turn out when `CCCC(=O)Nc1ccc(-c2nc3cc(C)ccc3o2)cc1` [MLS000061826] was run?
A: 6.36 µM

Q: Which EC50 does the source give for `Cc1cc(C)cc(-c2nc(-c3ccncc3)no2)c1` [5-(3,5-dimethylphenyl)-3-(4-pyridyl)-1,2,4-oxadiazole] here?
A: 1.44 µM

Q: How did the EC50 turn out when `COCCn1c(C)cc(C(=O)CSc2nc3ccccc3o2)c1C` [2-(1,3-benzoxazol-2-ylsulfanyl)-1-[1-(2-methoxyethyl)-2,5-dimethyl-pyrrol-3-yl]ethanone] was run?
A: > 95 µM

Q: Which EC50 does the source give for `O=S(=O)(CCSc1ccccn1)c1nc2ccccc2s1` [2-(2-pyridin-2-ylsulfanylethylsulfonyl)-1,3-benzothiazole] here?
A: 9.83 µM

Q: How did the EC50 turn out when `CCOc1ccccc1OCCCCCc1c(C)n[nH]c1C` [MLS000043342] was run?
A: 1.27 µM

Q: Which EC50 does the source give for `Nc1ccc(N2CCCCCC2)cc1` [4-(1-azepanyl)aniline;hydrochloride] here?
A: > 30 µM

Q: Which EC50 does the source give for `Cc1ccccc1OCCCCc1c(C)n[nH]c1C` [SMR000103095] here?
A: 6.51 µM

Q: For `OCC12C=CC(O1)c1c2c(O)n(-c2ccccc2-c2ccccc2)c1O` (centres undefined) [7-(hydroxymethyl)-2-(2-phenylphenyl)-4,7a-dihydro-3aH-octahydro-1H-4,7-epoxyisoindole-1,3-dione], which EC50 is on record?
A: 6.82 µM

Q: `CCOc1ccc(-c2nc(-c3ccc(OC)cc3)no2)cc1OCC` [5-(3,4-Diethoxy-phenyl)-3-(4-methoxy-phenyl)-[1,2,4]oxadiazole] was tested. Which EC50 did it give?
A: 0.732 µM

Q: How did the EC50 turn out when `Cc1ccc(OCc2nc(-c3ccccc3)no2)c(C)c1` [5-[(2,4-dimethylphenoxy)methyl]-3-phenyl-1,2,4-oxadiazole] was run?
A: 1.96 µM

Q: How did the EC50 turn out when `C=C(C)COc1ccc(-c2nc(N)nc(C)c2Oc2ccccc2OC)c(O)c1` [(6E)-6-[2-amino-5-(2-methoxyphenoxy)-6-methyl-1H-pyrimidin-4-ylidene]-3-(2-methylallyloxy)cyclohexa-2,4-dien-1-one] was run?
A: 2.79 µM

Q: With `Cn1c(C(=O)N2CCc3ccccc3C2)cc2oc3ccccc3c21` [2-(3,4-dihydroisoquinolin-2(1H)-ylcarbonyl)-1-methyl-1H-[1]benzofuro[3,2-b]pyrrole] as the molecule, how does the EC50 read?
A: > 30 µM

Q: How did the EC50 turn out when `COc1ccccc1OCCCCCc1c(C)n[nH]c1C` [SMR000103101] was run?
A: 8.22 µM

Q: With `O=C(c1ccccc1)C(CCC(CN1CCOCC1)C(=O)c1ccccc1)CN1CCOCC1` (centres undefined) [2,5-bis(4-morpholinylmethyl)-1,6-diphenylhexane-1,6-dione;hydrochloride] as the molecule, how does the EC50 read?
A: 4.14 µM

same assay, conditions: inactive by the depositor's call

Q: With `Cc1nc2ncnn2c(N2CCN(c3cccc(C(F)(F)F)c3)CC2)c1C` [5,6-Dimethyl-7-[4-(3-trifluoromethyl-phenyl)-piperazin-1-yl]-[1,2,4]triazolo[1,5-a]pyrimidine] as the molecule, how does the EC50 read?
A: 15.4 µM

Q: With `CC(=O)N1CCCc2cc(S(=O)(=O)NCCC3=CCCCC3)ccc21` [1-acetyl-N-(2-cyclohex-1-en-1-ylethyl)-1,2,3,4-tetrahydroquinoline-6-sulfonamide] as the molecule, how does the EC50 read?
A: 13.4 µM

Q: `COc1cccc(-c2nnc3sc(C4CCCCC4)nn23)c1` [6-cyclohexyl-3-(3-methoxyphenyl)-[1,2,4]triazolo[3,4-b][1,3,4]thiadiazole] was tested. Which EC50 did it give?
A: 30.6 µM

Q: How did the EC50 turn out when `CN(CC1CCCO1)S(=O)(=O)c1ccc(C(=O)Nc2nc(-c3ccccn3)cs2)cc1` (centres undefined) [4-[methyl(2-oxolanylmethyl)sulfamoyl]-N-[4-(2-pyridinyl)-2-thiazolyl]benzamide] was run?
A: 24 µM

Q: `CC(C)[C@H](NC(=O)OC(C)(C)C)c1nnc(SCC(=O)Nc2ccc(Br)cc2)o1` [MLS000040800] was tested. Which EC50 did it give?
A: 16.2 µM

Q: Which EC50 does the source give for `CCCOc1ccc(S(=O)(=O)NCc2ccc(OC)cc2)cc1` [MLS000104592] here?
A: 19.8 µM

Q: `Cc1n[nH]c(C)c1N1C(=O)c2cccc3c(N4CCCCCC4)ccc(c23)C1=O` was tested. Which EC50 did it give?
A: 12.5 µM

Q: How did the EC50 turn out when `Cn1nc(CC(=O)Nc2ccc(N3CCN(C(=O)OC(C)(C)C)CC3)cc2)c2ccccc2c1=O` [4-[4-[[2-(3-methyl-4-oxo-1-phthalazinyl)-1-oxoethyl]amino]phenyl]-1-piperazinecarboxylic acid tert-butyl ester] was run?
A: 14.4 µM

Q: `O=C(c1ccco1)N1CCN(c2ncnc3c2[nH]c2ccc(Br)cc23)CC1` [MLS000078404] was tested. Which EC50 did it give?
A: 15.5 µM

Q: Which EC50 does the source give for `Nc1c(C(=O)NC2CCCC2)sc2nc(-c3cccs3)ccc12` [3-Amino-6-thiophen-2-yl-thieno[2,3-b]pyridine-2-carboxylic acid cyclopentylamide] here?
A: 13.6 µM

Q: Which EC50 does the source give for `CCC(=O)Nc1ccc2c(c1)C(=O)N(C1CCCCC1)C2=O` [MLS000099936] here?
A: 58 µM

Q: For `Cc1ccc2nc(C(F)(F)F)c(C#N)c(N)c2c1` [4-amino-6-methyl-2-(trifluoromethyl)-3-quinolinecarbonitrile], which EC50 is on record?
A: 12 µM

Q: How did the EC50 turn out when `CCOC(=O)c1ccc(NC(=O)CCc2nc(-c3ccc(Cl)cc3)no2)cc1` [4-[3-[3-(4-chlorophenyl)-1,2,4-oxadiazol-5-yl]propanoylamino]benzoic acid ethyl ester] was run?
A: 13 µM

Q: For `CCCOC(=O)c1ccc(OCC(O)Cn2c(C)nc3ccccc32)cc1` (centres undefined) [4-[2-hydroxy-3-(2-methyl-1-benzimidazolyl)propoxy]benzoic acid propyl ester], which EC50 is on record?
A: 10 µM

Q: Which EC50 does the source give for `COc1cccc(-c2cc(C(=O)Nc3ccccc3SC)no2)c1` [5-(3-methoxyphenyl)-N-(2-methylsulfanylphenyl)-1,2-oxazole-3-carboxamide] here?
A: 16 µM

Q: Which EC50 does the source give for `COc1ccc(CNc2cc(C)nc3ncnn23)c(OC)c1` [(2,4-Dimethoxy-benzyl)-(5-methyl-[1,2,4]triazolo[1,5-a]pyrimidin-7-yl)-amine] here?
A: 16 µM

Q: `CCc1ccc2c(COC(=O)c3n[nH]c4ccccc34)cc(=O)oc2c1` [(7-ethyl-2-oxochromen-4-yl)methyl 1H-indazole-3-carboxylate] was tested. Which EC50 did it give?
A: 10.4 µM

Q: `Cc1noc(C)c1S(=O)(=O)N(CC(=O)Nc1ccc2c(c1)OCCO2)c1ccc(C(C)C)cc1` [MLS000117406] was tested. Which EC50 did it give?
A: 15.9 µM

Q: Which EC50 does the source give for `Clc1ccc(CCNc2[nH]cnc3ncnc2-3)cc1` [SMR000017624] here?
A: 10.6 µM
